Assay results published in patent US11697648B2, “Fused pyrimidine pyridinone compounds as JAK inhibitors” (THERAVANCE BIOPHARMA R&D IP, LLC, priority 2019, dated 2023).

Experiments:
JAK1 = JAK1 (Homo sapiens (Human), UniProt P23458); test: Biochemical JAK1 kinase assay (LanthaScreen)
How it was run: (§1)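 GST-JAK + GFP-STAT1 peptide, HEPES pH 7.5/MgCl2/EGTA/Brij-35 buffer; cpd preincubation 1 h RT; ATP start, 1 h RT; stop with 10 mM EDTA + 2 nM Tb-anti-pSTAT1; TR-FRET 520/495. 4-parameter IC50 → pKi (Cheng-Prusoff).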

Tyk2 = Tyk2 (Homo sapiens (Human), UniProt P29597); test: Biochemical Tyk2 kinase assay (LanthaScreen)
Sequence of Tyk2 (P29597 whole entry): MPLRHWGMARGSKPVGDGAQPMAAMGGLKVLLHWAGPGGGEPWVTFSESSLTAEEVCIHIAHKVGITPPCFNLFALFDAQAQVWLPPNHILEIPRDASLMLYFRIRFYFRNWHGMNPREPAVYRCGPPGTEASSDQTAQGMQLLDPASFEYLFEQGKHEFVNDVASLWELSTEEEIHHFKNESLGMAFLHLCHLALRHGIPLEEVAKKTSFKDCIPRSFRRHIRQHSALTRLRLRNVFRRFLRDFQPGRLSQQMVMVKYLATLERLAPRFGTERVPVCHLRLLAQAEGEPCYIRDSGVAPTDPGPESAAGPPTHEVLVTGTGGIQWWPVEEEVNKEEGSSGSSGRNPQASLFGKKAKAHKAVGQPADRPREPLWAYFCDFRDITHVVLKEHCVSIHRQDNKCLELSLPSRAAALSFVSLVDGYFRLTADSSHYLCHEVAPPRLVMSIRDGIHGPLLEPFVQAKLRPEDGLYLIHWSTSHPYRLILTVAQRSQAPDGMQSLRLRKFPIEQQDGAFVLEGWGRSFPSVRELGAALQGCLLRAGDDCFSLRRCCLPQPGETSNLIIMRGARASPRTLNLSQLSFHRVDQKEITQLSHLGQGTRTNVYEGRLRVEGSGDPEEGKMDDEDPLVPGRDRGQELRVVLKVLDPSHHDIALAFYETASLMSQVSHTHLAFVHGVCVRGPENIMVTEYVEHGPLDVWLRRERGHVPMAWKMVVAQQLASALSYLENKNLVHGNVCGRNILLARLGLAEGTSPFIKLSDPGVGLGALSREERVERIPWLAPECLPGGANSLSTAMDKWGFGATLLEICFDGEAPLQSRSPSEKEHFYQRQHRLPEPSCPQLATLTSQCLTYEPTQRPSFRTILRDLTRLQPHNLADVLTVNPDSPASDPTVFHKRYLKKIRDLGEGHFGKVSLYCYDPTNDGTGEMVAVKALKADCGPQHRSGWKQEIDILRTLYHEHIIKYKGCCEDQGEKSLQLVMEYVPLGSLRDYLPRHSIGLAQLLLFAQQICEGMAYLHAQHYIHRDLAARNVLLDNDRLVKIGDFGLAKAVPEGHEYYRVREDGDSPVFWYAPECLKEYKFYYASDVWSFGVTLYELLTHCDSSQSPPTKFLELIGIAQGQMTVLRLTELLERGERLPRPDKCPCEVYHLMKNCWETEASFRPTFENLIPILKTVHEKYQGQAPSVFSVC
How it was run: as §1

[1] = tested on: IL-2 stimulated STAT5 phosphorylation in Tall-1 human T cell line (JAK3); test: Cellular JAK3 potency assay: inhibition of IL-2 stimulated pSTAT5 in Tall-1 T cells; format: cell-based; conditions: IL-2 stimulated pSTAT5, Tall-1 T cells
How it was run: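 Tall-1 cells, 45,000 per well, preincubated 1 hour with compound at 37 °C, then stimulated 30 minutes with IL-2 at 300 ng/ml final. pSTAT5 (Tyr694/699) in lysates quantified by AlphaLISA SureFire Ultra. pIC50 derived from inhibition curves, given as mean with SD.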

Sequence of JAK1 (P23458 whole entry): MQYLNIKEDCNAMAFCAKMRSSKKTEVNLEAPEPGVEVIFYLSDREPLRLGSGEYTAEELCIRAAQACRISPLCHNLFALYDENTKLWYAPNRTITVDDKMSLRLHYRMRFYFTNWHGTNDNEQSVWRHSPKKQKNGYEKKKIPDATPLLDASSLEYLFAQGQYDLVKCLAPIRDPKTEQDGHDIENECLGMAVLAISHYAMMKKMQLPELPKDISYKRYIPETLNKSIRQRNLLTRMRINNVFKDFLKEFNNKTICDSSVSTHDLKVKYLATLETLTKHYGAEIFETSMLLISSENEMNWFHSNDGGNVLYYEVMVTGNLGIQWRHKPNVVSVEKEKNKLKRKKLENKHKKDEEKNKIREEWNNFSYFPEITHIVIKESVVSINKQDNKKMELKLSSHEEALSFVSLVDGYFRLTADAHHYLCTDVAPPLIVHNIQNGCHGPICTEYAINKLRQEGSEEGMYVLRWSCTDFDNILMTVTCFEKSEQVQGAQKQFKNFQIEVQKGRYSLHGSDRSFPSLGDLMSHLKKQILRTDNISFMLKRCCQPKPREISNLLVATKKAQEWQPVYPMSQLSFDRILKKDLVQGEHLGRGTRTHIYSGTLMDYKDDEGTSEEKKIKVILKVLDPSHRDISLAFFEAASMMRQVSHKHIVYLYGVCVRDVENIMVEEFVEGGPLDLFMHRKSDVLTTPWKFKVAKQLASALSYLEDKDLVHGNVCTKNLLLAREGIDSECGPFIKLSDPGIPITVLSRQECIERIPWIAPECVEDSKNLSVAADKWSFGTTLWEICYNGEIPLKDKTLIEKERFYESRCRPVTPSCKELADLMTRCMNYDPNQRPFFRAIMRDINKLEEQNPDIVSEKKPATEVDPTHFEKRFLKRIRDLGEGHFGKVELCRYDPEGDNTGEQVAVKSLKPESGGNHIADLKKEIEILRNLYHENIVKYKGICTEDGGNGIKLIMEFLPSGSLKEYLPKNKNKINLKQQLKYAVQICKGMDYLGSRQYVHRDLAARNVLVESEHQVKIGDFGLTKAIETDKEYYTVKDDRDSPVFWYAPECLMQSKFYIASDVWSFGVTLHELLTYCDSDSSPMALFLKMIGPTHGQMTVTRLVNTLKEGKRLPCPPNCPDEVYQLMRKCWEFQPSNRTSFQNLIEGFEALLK

| Structure (SMILES) | JAK 1 (pKi) (JAK1) | Tyk 2 (pKi) (Tyk2) | Tall-1 (pIC50) [1] |
| --- | --- | --- | --- |
| C=CC(=O)N1CCN(CCn2c(=O)ccc3cnc(Nc4ccc(N5CCN(C)CC5)cc4)nc32)CC1 [Example 1, 8-(2-(4-acryloylpiperazin-1-yl)ethyl)-2-((4-(4-methylpiperazin-1-yl)phenyl)amino)pyrido[2,3-d]pyrimidin-7(8H)-one] | E (E represents a pKi value of 7 or below (Ki of 100 nM or above)) | E (E represents a pKi value of 7 or below (Ki of 100 nM or above)) | B (B represents a pC50 value between 6.7 (included) and 7.5 (IC50 between 200 nM and 32 nM)) |
| C=CC(=O)N1CC(CCn2c(=O)ccc3cnc(Nc4cccc(N5CCN(C(=O)CCSC)CC5)c4)nc32)C1 [Example 7, 8-(2-(1-acryloylazetidin-3-yl)ethyl)-2-((3-(4-(3-(methylthio)propanoyl)piperazin-1-yl)phenyl)amino)pyrido[2,3-d]pyrimidin-7(8H)-one] | E (E represents a pKi value of 7 or below (Ki of 100 nM or above)) | E (E represents a pKi value of 7 or below (Ki of 100 nM or above)) | B (B represents a pC50 value between 6.7 (included) and 7.5 (IC50 between 200 nM and 32 nM)) |
| C=CC(=O)N1CC(CCn2c(=O)ccc3cnc(Nc4cccc(CN5CCN(C(=O)N(C)C)CC5)c4)nc32)C1 [Example 5, 4-(3-((8-(2-(1-acryloylazetidin-3-yl)ethyl)-7-oxo-7,8-dihydropyrido[2,3-d]pyrimidin-2-yl)amino)benzyl)-N,N-dimethylpiperazine-1-carboxamide] | E (E represents a pKi value of 7 or below (Ki of 100 nM or above)) | E (E represents a pKi value of 7 or below (Ki of 100 nM or above)) | B (B represents a pC50 value between 6.7 (included) and 7.5 (IC50 between 200 nM and 32 nM)) |
| C=CC(=O)N1CC(CCn2c(=O)ccc3cnc(Nc4ccc(N5CCN(C(C)=O)CC5)cc4)nc32)C1 [Example 2, 2-((4-(4-acetylpiperazin-1-yl)phenyl)amino)-8-(2-(1-acryloylazetidin-3-yl)ethyl)pyrido[2,3-d]pyrimidin-7(8H)-one] | E (E represents a pKi value of 7 or below (Ki of 100 nM or above)) | E (E represents a pKi value of 7 or below (Ki of 100 nM or above)) | B (B represents a pC50 value between 6.7 (included) and 7.5 (IC50 between 200 nM and 32 nM)) |
| C=CC(=O)N1CC(CCn2c(=O)ccc3cnc(Nc4ccc(N5CCN(C(=O)CSC)CC5)cc4)nc32)C1 [Example 13, 8-(2-(1-acryloylazetidin-3-yl)ethyl)-2-((4-(4-(2-(methylthio)acetyl)piperazin-1-yl)phenyl)amino)pyrido[2,3-d]pyrimidin-7(8H)-one] | E (E represents a pKi value of 7 or below (Ki of 100 nM or above)) | E (E represents a pKi value of 7 or below (Ki of 100 nM or above)) | B (B represents a pC50 value between 6.7 (included) and 7.5 (IC50 between 200 nM and 32 nM)) |
| C=CC(=O)N1CCN(CCn2c(=O)ccc3cnc(Nc4cnn(C)c4)nc32)[C@@H](CC)C1 [Example 12, (S)-8-(2-(4-acryloyl-2-ethylpiperazin-1-yl)ethyl)-2-((1-methyl-1H-pyrazol-4-yl)amino)pyrido[2,3-d]pyrimidin-7(8H)-one] | E (E represents a pKi value of 7 or below (Ki of 100 nM or above)) | E (E represents a pKi value of 7 or below (Ki of 100 nM or above)) | B (B represents a pC50 value between 6.7 (included) and 7.5 (IC50 between 200 nM and 32 nM)) |
| C=CC(=O)N1CCN(CCn2c(=O)ccc3cnc(Nc4ccc(N5CCN(C(=O)CCSC)CC5)cc4)nc32)CC1 [Example 4, 8-(2-(4-acryloylpiperazin-1-yl)ethyl)-2-((4-(4-(3-(methylthio)propanoyl)piperazin-1-yl)phenyl)amino)pyrido[2,3-d]pyrimidin-7(8H)-one] | E (E represents a pKi value of 7 or below (Ki of 100 nM or above)) | E (E represents a pKi value of 7 or below (Ki of 100 nM or above)) | B (B represents a pC50 value between 6.7 (included) and 7.5 (IC50 between 200 nM and 32 nM)) |
